Laboratory results published in publication PMC8162404, “Proteomimetic surface fragments distinguish targets by function” (Chemical Science, 2020).

Tests used:
S100B [1] = molecular target: T1, S100B (Homo sapiens, UniProt P04271); assay: Competition pull-down with native ligand RSK1 (689–735); assay type: binding; details: H14 library; competitor peptide 200 µM; read-out: Surface mapping KD (apparent), competition
T1 construct: made in house; host or cells: Escherichia coli BL21(DE3)
T1 sequence (P04271 1-92): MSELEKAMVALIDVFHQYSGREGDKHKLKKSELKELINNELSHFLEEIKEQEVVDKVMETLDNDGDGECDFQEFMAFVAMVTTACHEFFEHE

CaM [2] = molecular target: T2, CaM (Bos taurus, UniProt P62157); assay: Pull-down assay with immobilized protein and LSM libraries; assay type: binding, bovine; details: H14 library; 1:2 stoichiometry assumed; read-out: Surface mapping KD (apparent)
T2 construct: made in house; host or cells: E. coli BL21 (DE3)
Summary of the method: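 CaM buffer was 20 mM HEPES pH 7.4, 150 mM NaCl, 5 mM CaCl2. LSM sublibrary members ([…]) incubated 30 min, RT, with equimolar His-tagged protein on Co-NTA resin. HPLC-MS measured unbound probes; bound fraction relative to resin-only background gave dissociation constants.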

S100B [3] = molecular target: T1, S100B; assay: as above; assay type: binding; details: H14 library; 1:1 binding assumed; read-out: Surface mapping KD (apparent)
Summary of the method: (§1)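 Buffers were HEPES pH 7.4 with 150 mM NaCl, plus 1 mM TCEP and 1 mM CaCl2 (50 mM HEPES) for S100A4 and S100B, 1 mM TCEP for Gal-1, and no additive for RecQ-WH. Immobilized protein at 64 µM was equilibrated 30 min with the LSM sublibrary, and unbound probes were measured by LC-MS.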

S100A4 = molecular target: T3, S100A4 (Homo sapiens, UniProt P26447); assay: as above; assay type: binding; details: H14 library; 1:1 binding assumed; read-out: Surface mapping KD (apparent)
T3 construct: made in house; host or cells: Escherichia coli BL21(DE3)
T3 sequence (P26447 whole entry): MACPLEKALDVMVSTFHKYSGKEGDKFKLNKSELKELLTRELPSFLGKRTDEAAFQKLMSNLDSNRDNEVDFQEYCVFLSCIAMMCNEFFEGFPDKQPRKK
Summary of the method: as §1

Gal-1 [4] = molecular target: T4, Gal-1 (Homo sapiens, UniProt P09382); assay: Competition pull-down with lactose; assay type: binding; details: H14 library; lactose 10 mM; read-out: Surface mapping KD (apparent), competition
T4 construct: made in house; host or cells: E. coli BL21(DE3)
T4 sequence (P09382 whole entry): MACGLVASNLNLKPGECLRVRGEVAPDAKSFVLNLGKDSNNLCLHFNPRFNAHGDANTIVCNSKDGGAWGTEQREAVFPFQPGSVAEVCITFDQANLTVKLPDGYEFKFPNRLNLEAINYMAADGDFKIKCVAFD
Summary of the method: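 His6-tagged proteins immobilized on Co-NTA resin at 64 µM final with 64-member LSM foldamer sublibraries (1 M each, as printed) in pH 7.4 HEPES/NaCl buffers (Ca2+/TCEP per target), 30 min RT; competitor peptides 200 µM final, lactose 10 mM for Gal-1. Bound fractions from LC-MS loss vs protein-free resin; KD assuming 1:1 binding.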

Gal-1 [5] = molecular target: T4, Gal-1; assay: Pull-down assay with immobilized protein and LSM libraries; assay type: binding; details: H14 library; 1:1 binding assumed; read-out: Surface mapping KD (apparent)
Summary of the method: as §1

CaM [6] = molecular target: T2, CaM; assay: Competition pull-down with native ligand TRPV1-Ct15; assay type: binding, bovine; details: H14 library; competitor peptide 200 µM; read-out: Surface mapping KD (apparent), competition

| SMILES | Kd (S100B [1]) [µM] | Kd (CaM [2]) [µM] | Kd (S100B [3]) [µM] | Kd (S100A4) [µM] | Kd (Gal-1 [4]) [µM] | Kd (Gal-1 [5]) [µM] | Kd (CaM [6]) [µM] |
| --- | --- | --- | --- | --- | --- | --- | --- |
| CSCC[C@@H](CC(=O)N[C@H]1CCCC[C@@H]1C(N)=O)NC(=O)[C@H]1CCCC[C@@H]1NC(=O)[C@H]1CCCC[C@@H]1NC(=O)C[C@H](CCC(=O)O)NC(=O)[C@H]1CCCC[C@@H]1N [H14 EM] | 141 | – | – | – | – | – | – |
| NC(=O)CC[C@@H](CC(=O)N[C@H]1CCCC[C@@H]1C(N)=O)NC(=O)[C@H]1CCCC[C@@H]1NC(=O)[C@H]1CCCC[C@@H]1NC(=O)C[C@H](Cc1ccccc1)NC(=O)[C@H]1CCCC[C@@H]1N [H14 FQ] | 494 | 49 | 433 | 377 | – | – | – |
| CC[C@H](C)[C@@H](CC(=O)N[C@H]1CCCC[C@@H]1C(=O)N[C@H]1CCCC[C@@H]1C(=O)N[C@@H](CCCCN)CC(=O)N[C@H]1CCCC[C@@H]1C(N)=O)NC(=O)[C@H]1CCCC[C@@H]1N [H14 IK] | 216 | 31 | 84 | 307 | – | – | – |
| CC[C@H](C)[C@@H](CC(=O)N[C@H]1CCCC[C@@H]1C(=O)N[C@H]1CCCC[C@@H]1C(=O)N[C@@H](CC(N)=O)CC(=O)N[C@H]1CCCC[C@@H]1C(N)=O)NC(=O)[C@H]1CCCC[C@@H]1N [H14 IN] | 325 | 281 | – | 321 | – | – | – |
| CC[C@H](C)[C@@H](CC(=O)N[C@H]1CCCC[C@@H]1C(=O)N[C@H]1CCCC[C@@H]1C(=O)N[C@@H](CCC(N)=O)CC(=O)N[C@H]1CCCC[C@@H]1C(N)=O)NC(=O)[C@H]1CCCC[C@@H]1N [H14 IQ] | 387 | 321 | 497 | 319 | – | – | – |
| CC(C)[C@@H](CC(=O)N[C@H]1CCCC[C@@H]1C(N)=O)NC(=O)[C@H]1CCCC[C@@H]1NC(=O)[C@H]1CCCC[C@@H]1NC(=O)C[C@H](CC(N)=O)NC(=O)[C@H]1CCCC[C@@H]1N [H14 NV] | – | 115 | – | 395 | 378 | 349 | 261 |
| CC[C@H](C)[C@@H](CC(=O)N[C@H]1CCCC[C@@H]1C(N)=O)NC(=O)[C@H]1CCCC[C@@H]1NC(=O)[C@H]1CCCC[C@@H]1NC(=O)C[C@H](CCC(N)=O)NC(=O)[C@H]1CCCC[C@@H]1N [H14 QI] | – | 82 | – | 256 | 486 | 456 | 241 |
| NCCCC[C@@H](CC(=O)N[C@H]1CCCC[C@@H]1C(N)=O)NC(=O)[C@H]1CCCC[C@@H]1NC(=O)[C@H]1CCCC[C@@H]1NC(=O)C[C@H](CCC(N)=O)NC(=O)[C@H]1CCCC[C@@H]1N [H14 QK] | – | 96 | 81 | 382 | 146 | 158 | 208 |
| CC(C)C[C@@H](CC(=O)N[C@H]1CCCC[C@@H]1C(N)=O)NC(=O)[C@H]1CCCC[C@@H]1NC(=O)[C@H]1CCCC[C@@H]1NC(=O)C[C@H](CCC(N)=O)NC(=O)[C@H]1CCCC[C@@H]1N [H14 QL] | – | 87 | – | 256 | 458 | 457 | 241 |
| CSCC[C@@H](CC(=O)N[C@H]1CCCC[C@@H]1C(N)=O)NC(=O)[C@H]1CCCC[C@@H]1NC(=O)[C@H]1CCCC[C@@H]1NC(=O)C[C@H](CCC(N)=O)NC(=O)[C@H]1CCCC[C@@H]1N [H14 QM] | – | 51 | – | 448 | 406 | 364 | 317 |
| N=C(N)NCCC[C@@H](CC(=O)N[C@H]1CCCC[C@@H]1C(N)=O)NC(=O)[C@H]1CCCC[C@@H]1NC(=O)[C@H]1CCCC[C@@H]1NC(=O)C[C@H](CCC(N)=O)NC(=O)[C@H]1CCCC[C@@H]1N [H14 QR] | – | 43 | 107 | 344 | 272 | 71 | 291 |
| CC(C)[C@@H](CC(=O)N[C@H]1CCCC[C@@H]1C(N)=O)NC(=O)[C@H]1CCCC[C@@H]1NC(=O)[C@H]1CCCC[C@@H]1NC(=O)C[C@H](CCCNC(=N)N)NC(=O)[C@H]1CCCC[C@@H]1N [H14 RV] | – | 26 | 63 | 72 | 418 | – | 219 |
| CC[C@H](C)[C@@H](CC(=O)N[C@H]1CCCC[C@@H]1C(N)=O)NC(=O)[C@H]1CCCC[C@@H]1NC(=O)[C@H]1CCCC[C@@H]1NC(=O)C[C@H](CO)NC(=O)[C@H]1CCCC[C@@H]1N [H14 SI] | – | 75 | 380 | 19 | 478 | 336 | 471 |
| CC(C)C[C@@H](CC(=O)N[C@H]1CCCC[C@@H]1C(N)=O)NC(=O)[C@H]1CCCC[C@@H]1NC(=O)[C@H]1CCCC[C@@H]1NC(=O)C[C@H](CO)NC(=O)[C@H]1CCCC[C@@H]1N [H14 SL] | – | 64 | 380 | 19 | 325 | 251 | 436 |
| CSCC[C@@H](CC(=O)N[C@H]1CCCC[C@@H]1C(N)=O)NC(=O)[C@H]1CCCC[C@@H]1NC(=O)[C@H]1CCCC[C@@H]1NC(=O)C[C@H](CO)NC(=O)[C@H]1CCCC[C@@H]1N [H14 SM] | – | 43 | – | 26 | 352 | 356 | 210 |
| N=C(N)NCCC[C@@H](CC(=O)N[C@H]1CCCC[C@@H]1C(N)=O)NC(=O)[C@H]1CCCC[C@@H]1NC(=O)[C@H]1CCCC[C@@H]1NC(=O)C[C@H](CO)NC(=O)[C@H]1CCCC[C@@H]1N [H14 SR] | – | 75 | 76 | 188 | 349 | 156 | 174 |
| CC(C)[C@@H](CC(=O)N[C@H]1CCCC[C@@H]1C(N)=O)NC(=O)[C@H]1CCCC[C@@H]1NC(=O)[C@H]1CCCC[C@@H]1NC(=O)C[C@H](CO)NC(=O)[C@H]1CCCC[C@@H]1N [H14 SV] | – | 101 | – | 34 | 476 | 221 | 398 |
| C[C@@H](CC(=O)N[C@H]1CCCC[C@@H]1C(N)=O)NC(=O)[C@H]1CCCC[C@@H]1NC(=O)[C@H]1CCCC[C@@H]1NC(=O)C[C@@H](NC(=O)[C@H]1CCCC[C@@H]1N)[C@@H](C)O [H14 TA] | – | 244 | – | 338 | 426 | 425 | 398 |
| C[C@@H](O)[C@@H](CC(=O)N[C@H]1CCCC[C@@H]1C(=O)N[C@H]1CCCC[C@@H]1C(=O)N[C@@H](CCCNC(=N)N)CC(=O)N[C@H]1CCCC[C@@H]1C(N)=O)NC(=O)[C@H]1CCCC[C@@H]1N [H14 TR] | – | 75 | 94 | 407 | 432 | 372 | 338 |
| CC(C)[C@@H](CC(=O)N[C@H]1CCCC[C@@H]1C(=O)N[C@H]1CCCC[C@@H]1C(=O)N[C@@H](CCC(=O)O)CC(=O)N[C@H]1CCCC[C@@H]1C(N)=O)NC(=O)[C@H]1CCCC[C@@H]1N [H14 VE] | 369 | – | – | – | – | 313 | – |
| CC(C)[C@@H](CC(=O)N[C@H]1CCCC[C@@H]1C(=O)N[C@H]1CCCC[C@@H]1C(=O)N[C@@H](CCCCN)CC(=O)N[C@H]1CCCC[C@@H]1C(N)=O)NC(=O)[C@H]1CCCC[C@@H]1N [H14 VK] | 390 | 67 | 138 | – | – | 296 | – |
| CC(C)[C@@H](CC(=O)N[C@H]1CCCC[C@@H]1C(=O)N[C@H]1CCCC[C@@H]1C(=O)N[C@@H](CC(N)=O)CC(=O)N[C@H]1CCCC[C@@H]1C(N)=O)NC(=O)[C@H]1CCCC[C@@H]1N [H14 VN] | 271 | – | – | – | – | 302 | – |
| CC(C)[C@@H](CC(=O)N[C@H]1CCCC[C@@H]1C(=O)N[C@H]1CCCC[C@@H]1C(=O)N[C@@H](CCC(N)=O)CC(=O)N[C@H]1CCCC[C@@H]1C(N)=O)NC(=O)[C@H]1CCCC[C@@H]1N [H14 VQ] | 339 | – | – | – | – | 161 | – |
| CC(C)[C@@H](CC(=O)N[C@H]1CCCC[C@@H]1C(=O)N[C@H]1CCCC[C@@H]1C(=O)N[C@@H](CO)CC(=O)N[C@H]1CCCC[C@@H]1C(N)=O)NC(=O)[C@H]1CCCC[C@@H]1N [H14 VS] | 460 | 264 | – | 263 | – | 190 | – |
| NC(=O)[C@H]1CCCC[C@@H]1NC(=O)C[C@H](CO)NC(=O)[C@H]1CCCC[C@@H]1NC(=O)[C@H]1CCCC[C@@H]1NC(=O)C[C@H](Cc1ccc(O)cc1)NC(=O)[C@H]1CCCC[C@@H]1N [H14 YS] | 399 | 67 | – | 346 | – | 336 | – |
